# Earlier results as cited in PubChem BioAssay AID1259409 (Chemical Carcinogenesis Research Information System (CCRIS), 2018).
# Test system: rodent chemically induced tumor inhibition, incidence and multiplicity
# Assay: CCRIS tumor inhibitor studies
# Details: Dose [Inhibitor]: 0, Species: RAT
structure (smiles),measurement,setting,value
NCCS,"tumour outcome (control, treated, inhibition, significance)","Carcinogen: 7,12-DIMETHYLBENZ[A]ANTHRACENE, 57-97-6, 0.015 MOL/KG DIET BEGINNING 2 WK PRIOR TO CARCINOGEN AND CONTINUED FOR STUDY DURATION (STUDY DURATION: 25 WK), Route [Inhibitor]: ORAL, Strain/Sex: CD-1/FEMALE, Target Tissue: Type of Lesion: MAMMARY GLAND: ADENOCARCINOMA, Dose [Carcinogen]: 10 MG ONCE, Promoter: NONE USED","18/25 (72%), 17/25 (68%), 5%, not significant"
same,"tumour outcome (control, treated, inhibition, significance)","Carcinogen: 7,12-DIMETHYLBENZ[A]ANTHRACENE, 57-97-6, 0.03 MOL/KG DIET BEGINNING 2 WK PRIOR TO CARCINOGEN AND CONTINUED FOR STUDY DURATION (STUDY DURATION: 25 WK), Route [Inhibitor]: ORAL, Strain/Sex: CD-1/FEMALE, Target Tissue: Type of Lesion: MAMMARY GLAND: ADENOCARCINOMA, Dose [Carcinogen]: 10 MG ONCE, Promoter: NONE USED","18/25 (72%), 12/25 (48%), 33%, not significant"
same,"tumour outcome (control, treated, inhibition, significance)","Carcinogen: 7,12-DIMETHYLBENZ[A]ANTHRACENE, 57-97-6, 0.06 MOL/KG DIET BEGINNING 2 WK PRIOR TO CARCINOGEN AND CONTINUED FOR STUDY DURATION (STUDY DURATION: 25 WK), Route [Inhibitor]: ORAL, Strain/Sex: CD-1/FEMALE, Target Tissue: Type of Lesion: MAMMARY GLAND: ADENOCARCINOMA, Dose [Carcinogen]: 10 MG ONCE, Promoter: NONE USED","18/25 (72%), 13/25 (52%), 28%, not significant"
same,"tumour outcome (control, treated, inhibition, significance)","Carcinogen: AZOXYMETHANE, 25843-45-2, 25 MG/KG IN 0.9% SODIUM CHLORIDE 1/2 D FOR 40 WK ADMINISTERED CONCURRENTLY WITH CARCINOGEN (STUDY DURATION: 40 WK), Route [Inhibitor]: SUBCUTANEOUS, Strain/Sex: WISTAR, Target Tissue: Type of Lesion: COLON: TUMOR, Dose [Carcinogen]: 7.4 MG/KG IN 0.9% SODIUM CHLORIDE SOLUTION 1/WK FOR 10 WK, Promoter: NONE USED","17/18 (94%), 7/17 (41%), 56%, p<0.01"
same,"tumour outcome (control, treated, inhibition, significance)","Carcinogen: N-METHYL-N'-NITRO-N-NITROSOGUANIDINE, 70-25-7, 5 MG/KG 1/2 D ADMINISTERED SIMULTANEOUSLY WITH 30 MG/KG SULPIRIDE BEGINNING 1 WK POST CARCINOGEN TREATMENT AND CONTIN, Route [Inhibitor]: SUBCUTANEOUS, Strain/Sex: WISTAR/MALE, Target Tissue: Type of Lesion: STOMACH: ADENOCARCINOMA, Dose [Carcinogen]: 50 UG/ML IN DRINKING WATER FOR 25 WK, Promoter: NONE USED","13/18 (72%), 5/20 (25%), 65%, not calculated"
same,"tumour outcome (control, treated, inhibition, significance)","Carcinogen: N-METHYL-N'-NITRO-N-NITROSOGUANIDINE, 70-25-7, 5 MG/KG 1/2 D BEGINNING 1 WK POST CARCINOGEN TREATMENT AND CONTINUING FOR DURATION OF STUDY (STUDY DURATION: 52 WK), Route [Inhibitor]: SUBCUTANEOUS, Strain/Sex: WISTAR/MALE, Target Tissue: Type of Lesion: STOMACH: ADENOCARCINOMA, Dose [Carcinogen]: 50 UG/ML IN DRINKING WATER FOR 25 WK, Promoter: NONE USED","13/18 (72%), 13/20 (65%), 10%, not significant"
same,"tumour outcome (control, treated, inhibition, significance)","Carcinogen: N-METHYL-N'-NITRO-N-NITROSOGUANIDINE, 70-25-7, 5 MG/KG IN 1 ML/KG OLIVE OIL 1/2 D FOR STUDY DURATION BEGINNING POST CARCINOGEN TREATMENT (STUDY DURATION: 52 WK), Route [Inhibitor]: SUBCUTANEOUS, Strain/Sex: WISTAR/MALE, Target Tissue: Type of Lesion: GLANDULAR STOMACH: ADENOCARCINOMA, Dose [Carcinogen]: 50 UG/ML DRINKING WATER FOR 25 WK","13/18 (72%), 13/20 (65%), 10%, not significant"
same,"tumour outcome (control, treated, inhibition, significance)","Carcinogen: N-METHYL-N'-NITRO-N-NITROSOGUANIDINE, 70-25-7, 25 MG/KG 1/2 D ADMINISTERED SIMULTANEOUSLY WITH 30 MG/KG SULPIRIDE BEGINNING 1 WK POST CARCINOGEN TREATMENT AND CONTI, Route [Inhibitor]: SUBCUTANEOUS, Strain/Sex: WISTAR/MALE, Target Tissue: Type of Lesion: STOMACH: ADENOCARCINOMA, Dose [Carcinogen]: 50 UG/ML IN DRINKING WATER FOR 25 WK, Promoter: NONE USED","13/18 (72%), 6/20 (30%), 58%, not calculated"
same,"tumour outcome (control, treated, inhibition, significance)","Carcinogen: N-METHYL-N'-NITRO-N-NITROSOGUANIDINE, 70-25-7, 25 MG/KG 1/2 D BEGINNING 1 WK POST CARCINOGEN TREATMENT AND CONTINUING FOR DURATION OF STUDY (STUDY DURATION: 52 WK), Route [Inhibitor]: SUBCUTANEOUS, Strain/Sex: WISTAR/MALE, Target Tissue: Type of Lesion: STOMACH: ADENOCARCINOMA, Dose [Carcinogen]: 50 UG/ML IN DRINKING WATER FOR 25 WK, Promoter: NONE USED","13/18 (72%), 6/20 (30%), 58%, p<0.05"
same,"tumour outcome (control, treated, inhibition, significance)","Carcinogen: N-METHYL-N'-NITRO-N-NITROSOGUANIDINE, 70-25-7, 25 MG/KG IN 0.9% SALINE 1/2 D BEGINNING 1 WK POST LAST CARCINOGEN DOSE AND CONTINUING FOR DURATION OF STUDY (STUDY DU, Route [Inhibitor]: SUBCUTANEOUS, Strain/Sex: WISTAR/MALE, Target Tissue: Type of Lesion: STOMACH: ADENOCARCINOMA, Dose [Carcinogen]: 100 UG/ML IN DRINKING WATER FOR 25 WK, Promoter: NONE USED","16/20 (80%), 10/22 (45%), 44%, p<0.05"
